Experimental data reported in patent US20250296909A1, “NOVEL BENZENE DERIVATIVE AND IMMUNOSUPPRESSION-RELATED USE THEREOF” (PROVIBIO CO., LTD., priority 2021, published 2025).

Experiments:
spleen T cells = assay: Cytokine secretion by anti-CD3/CD28-activated T cells (Cytometric Bead Array); assay type: cell-based, C57BL/6 mice; details: 30 μM
Description: To confirm the effect of compounds of the present invention on the secretion of cytokines by T cells, the following experiment was conducted.
Spleens were harvested and minced from C57BL/6 mice at 7 weeks of age, and single cells were isolated using a strainer (40 μm pore size, SPL). Red blood cells were removed using ACK (Ammonium-Chloride-Potassium) lysis buffer to isolate only leukocytes. These were then reacted with 10 v/v % CD90.2 microbeads (130-121-278, Miltenyi Biotech.) at 4° C. for 20 minutes, resulting in the isolation of spleen T cells from magnetic-based purification. The T cells were cultured in a 96-well plate at an amount of 2×10^5 cells/well. For T cell activation, each well was treated with anti-CD3/CD28 antibodies at a concentration of 1 μg/mL. Subsequently, Vehicle (DMSO) and compounds (Compound 14, Compound 19, Compound 26, Compound 31, Compound 35, Compound 40, Compound 41, Compound 56, Compound 69, Compound 75) at a concentration of 30 μM were treated in each well, and it was cultured at 37° C. in a 5% CO2 incubator. After 24 and 72 hours, the T cell culture medium was taken, and centrifugation was performed at 13,000 rpm for 10 minutes to obtain the supernatant.
To measure the concentration of cytokines present in the T cell culture medium, Mouse Th1/Th2/Th17 Cytokine CBA Kit (Cytometric Bead Array kit) 560485 from BD Science was utilized for flow cytometry analysis. The secretion levels of IL-2 at 24 hours after each drug treatment, and IFN-γ, TNF-α, and IL-17A at 72 hours were measured after each drug treatment.

[1] = test system: T lymphocyte cell line Jurkat E6-1; assay: Cytotoxicity experiment (CCK-8, relative cell survival); assay type: cell-based; details: 24 hours, untreated cells = 100%
Outline: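 Jurkat cells in RPMI-1640 with 10% FBS were exposed to compounds at several concentrations for 24 h at 37 °C, 5% CO2. CCK-8 added for 2 h, absorbance read at 450 nm; survival expressed relative to untreated cells (100%).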

In the case of `CCCCCCCCCCCCNC(=O)c1cccnc1N` [Compound 69], the “secretion of IL-2” value (spleen T cells; 24 hours after treatment, FIG. 3) was “significant decrease”, the “secretion of IFN-γ” value (spleen T cells; 72 hours after treatment) was “significant decrease” and the “secretion of IL-17A” value (spleen T cells; 72 hours after treatment) was “significant decrease”. The “secretion of TNF-α” value (spleen T cells; 72 hours after treatment) was “significant decrease”, the “Relative cell survival rate (%)” value ([1]; 10 μM) was 95% and the “Relative cell survival rate (%)” value ([1]; 20 μM) was 94%. The “Relative cell survival rate (%)” value ([1]; 30 μM) was 88% and the “Relative cell survival rate (%)” value ([1]; 50 μM) was 84%.
